In patent US5604242A, “Heterocyclic chemistry” (Novo Nordisk A/S, priority 1993, dated 1997):
Structures can show the parent of a compound that is named as a salt.

Tested on: GABA uptake
Test: not given
Settings: Yunger et al., J.Pharm.Exp.Ther. 1984, 228, 109; cited from earlier work

Compound	oral activity as inhibitor of GABA uptake
O=C(O)C1CCCN(CCC=C(c2ccccc2)c2ccccc2)C1 (stereo not drawn) [SK&F 89976A, N-(4,4-diphenyl-3-buten-1-yl)nipecotic acid]	orally active inhibitors of GABA uptake
O=C(O)C1=CCCN(CCC=C(c2ccccc2)c2ccccc2)C1 [SK&F 100330A, N-(4,4-diphenyl-3-buten-1-yl)guvacine]	orally active inhibitors of GABA uptake
O=C(O)CC1CCN(CCC=C(c2ccccc2)c2ccccc2)C1 (stereo not drawn) [SK&F 100561, N-(4,4-diphenyl-3-buten-1-yl)-homo-β-proline]	orally active inhibitors of GABA uptake
O=C(O)C1CCCN(CCC=C(c2ccccc2)c2cccs2)C1 (stereo not drawn) [SK&F 100604J, N-(4-phenyl-4-(2-thienyl)-3-buten-1-yl)nipecotic acid]	orally active inhibitors of GABA uptake

Same assay, conditions: background, in words; cited from earlier work

Compound	inhibition of GABA uptake from the synaptic cleft into presynaptic nerve terminals and glial cells
O=C(O)C1CCCNC1 (stereo not drawn) [nipecotic acid, 3-piperidinecarboxylic acid]	well-known and potent inhibitor of GABA uptake

Tested on: [^3 H]-GABA uptake
Test: in vitro inhibition of [3H]-GABA uptake (method of Fjalland), rat cortical tissue homogenate
Format: biochemical, Male wistar rat
Settings: 40 mM tris HCl buffer pH 7.5, 60 minutes at 30° C.
Description: Values for in vitro inhibition of [^3 H]-GABA uptake for the invention compounds were assessed essentially by the method of Fjalland (Acta Pharmacol. Toxicol. 1978, 42, 73-76). Male wistar rat cortical tissue was gently homogenized by hand using a glass/PTFE homogenizer in 10 volumes of 0.32M sucrose. Incubation was performed in a 40 mM tris HCl buffer (pH 7.5 at 30° C.) containing […], 4 mM MgSO4, […] and 10 mM glucose, for 60 minutes at 30° C. Values for inhibition of GABA uptake for some representative compounds are recorded in Table I.

Compound	IC50 [nM]
O=C(O)C1CCCN(CCOCCCc2ccccc2)C1 (stereo not drawn) [Example 1, 1-(2-(3-Phenyl-1-propyloxy)ethyl)-3-piperidinecarboxylic acid hydrochloride]	4500
O=C(O)[C@@H]1CCCN(CCOCc2ccccc2Cc2ccccc2)C1 [Example 2, (R)-1-(2-(2-Benzylbenzyloxy)ethyl)-3-piperidinecarboxylic acid hydrochloride]	325
O=C(O)[C@@H]1CCCN(CCOCc2ccc3ccccc3c2-c2ccccc2)C1 [Example 3, (R)-1-(2-((1-Phenyl-2-naphthyl)methoxy)ethyl)-3-piperidinecarboxylic acid hydrochloride]	6400
O=C(O)[C@@H]1CCCN(CCOCc2ccccc2-c2ccccc2)C1 [Example 4, (R)-1-(2-(2-Phenylbenzyloxy)ethyl)-3-piperidinecarboxylic acid hydrochloride]	338
O=C(O)[C@@H]1CCCN(CCOC/C(=C/c2ccccc2)c2ccccc2)C1 [Example 5, E-(R)-1-(2-((2,3-Diphenyl-2-propen-1-yl)oxy)ethyl)-3-piperidinecarboxylic acid hydrochloride]	495
O=C(O)[C@@H]1CCCN(CCOC/C(=C\c2ccccc2)c2ccccc2)C1 [Example 6, Z-(R)-1-(2-((2,3-Diphenyl-2-propen-1-yl)oxy)ethyl)-3-piperidinecarboxylic acid hydrochloride]	2000

Tested on: not given
Test: not given
Settings: background, in words; cited from earlier work

Compound	ability to cross the blood-brain barrier
O=C(O)C1CCCNC1 (stereo not drawn) [nipecotic acid, 3-piperidinecarboxylic acid]	unable to cross the blood-brain barrier
